Molecules are shown by their SMILES. Activity calls are given as the source filed them.

Data set [1] relates to HCT-116. The data set can be described thus: Inhibition of Wnt/beta-catenin signaling in human HCT-116 cells assessed as residual activity at IC50 concentration incubated for 12 hrs by Topflash/Fopflash Dual-Glo luciferase reporter assay. It counts as cell-based. To be noted: dose 30.0 µM. (In general: Reporter assays use an easily measured gene product as a stand-in for the process of interest.)

Data set [2] deals with HCT-116. The data set can be described thus: Inhibition of cell growth in human HCT-116 cells incubated for 48 to 72 hrs by XTT method. It is filed as functional, cell-based.
The subject of data set [3] is SW480. Description: Inhibition of cell growth in human SW480 cells incubated for 48 to 72 hrs by XTT method. It counts as functional, cell-based. Background: Tetrazolium dyes change colour on reduction, which living cells bring about.
In data set [4] the test system is SW480. The data set can be described thus: Inhibition of Wnt/beta-catenin signaling in human SW480 cells assessed as residual activity at IC50 concentration incubated for 12 hrs by Topflash/Fopflash Dual-Glo luciferase reporter assay. It is filed as cell-based. Particulars: dose 30.0 µM.
The subject of data set [5] is MDA-MB-231. Description: Antiproliferative activity against human MDA-MB-231 cells at 13.33 uM incubated for 72 hrs by IncuCyte live-cell imaging analysis. It is filed as functional, cell-based.
The subject of data set [6] is MDA-MB-231. The data set can be described thus: Antiproliferative activity against human MDA-MB-231 cells at 1.48 to 40 uM incubated for 72 hrs by IncuCyte live-cell imaging analysis. It is filed as functional, cell-based. Particulars: dose 1.48-40 µM.
The subject of data set [7] is MDA-MB-231. Description: Antiproliferative activity against human MDA-MB-231 cells at 40 uM incubated for 24 hrs by IncuCyte live-cell imaging analysis. It is filed as functional, cell-based.
The nature of data set [8]: Metabolic stability in human liver microsomes assessed as half life preincubated for 10 mins followed by NADP, glucose-6-phosphate and glucose-6-phosphate dehydrogenase addition and measured upto 60 mins by LC-MS/MS analysis. It is filed as ADME, Microsome. Particulars: time < 70 min.
A short description of data set [9]: Metabolic stability in mouse liver microsomes assessed as intrinsic clearance per mg protein preincubated for 10 mins followed by NADP, glucose-6-phosphate and glucose-6-phosphate dehydrogenase addition and measured upto 60 mins by LC-MS/MS analysis. It is filed as ADME, Microsome. Particulars: time < 70 min, read-out: CLH. For orientation: Liver microsomes are vesicles of endoplasmic reticulum, rich in cytochrome P450 enzymes.

A short description of data set [10]: Metabolic stability in mouse liver microsomes assessed as half life preincubated for 10 mins followed by NADP, glucose-6-phosphate and glucose-6-phosphate dehydrogenase addition and measured upto 60 mins by LC-MS/MS analysis. It is filed as ADME, Microsome. To be noted: time < 70 min.
A short description of data set [11]: Metabolic stability in human liver microsomes assessed as intrinsic clearance per mg protein preincubated for 10 mins followed by NADP, glucose-6-phosphate and glucose-6-phosphate dehydrogenase addition and measured upto 60 mins by LC-MS/MS analysis. To be noted: time < 70 min, read-out: CLH. It counts as ADME, Microsome.

What is called EC50 is the concentration that produces a half-maximal response. High values mean lower potency in that assay, low ones higher potency in that assay. `O=S(=O)(Nc1ccc(-c2cccs2)cc1)c1ccc(C(F)(F)F)cc1`: the Activity was determined as 33.1% with HCT-116 [1] and 26.6% with SW480 [4]. In addition, the EC50 in the data set with HCT-116 [2] was determined as 39 µM; with SW480 [3], 45 µM.
On the same counts, the results for `O=S(=O)(Nc1ccc(-n2ccnc2)cc1)c1ccc(Br)cc1` are 6.4%, 7.2%, over 50 µM and over 50 µM.
For the molecule `O=c1[nH]cc(F)c(=O)[nH]1` [FLUOROURACIL], the figures for the EC50 in the data set with HCT-116 [2] and in the data set on SW480 [3] were 23.1 µM and 13.7 µM, respectively.
As for `O=S(=O)(Nc1ccc(-c2ccoc2)cc1)c1ccc(Br)cc1`, the Activity with HCT-116 [1] was 32.1%; with SW480 [4] it was 28.4%. Moreover, the EC50 turned out to be 62 µM in the data set with HCT-116 [2] and 35 µM in the data set on SW480 [3].
On the same counts, the results for `O=S(=O)(Nc1cccc(-n2ccnc2)c1)c1ccc(C(F)(F)F)cc1` are 5.1%, 9.1%, 50 µM and 28 µM.
As for `O=S(=O)(Nc1cccc(-n2ccnc2)c1)c1ccc(Cl)cc1`, the Activity in the data set with HCT-116 [1] stood at 8.4%; in the data set on SW480 [4] it was 2.3%. Further, the EC50 in the data set on HCT-116 [2] and with SW480 [3] was over 50 µM each time.
For `O=S(=O)(Nc1cccc(-c2ccccn2)c1)c1ccc(-n2cccc2)cc1`, the Activity amounted to 6.4% in the data set on HCT-116 [1] and 6.3% in the data set on SW480 [4]. For the same molecule, the EC50 in the data set with HCT-116 [2] was 66 µM; with SW480 [3], 46 µM.
As to `O=S(=O)(Nc1cccc(-c2ccccc2)c1)c1ccc(Br)cc1`, the Activity was found to be 33.5% in the data set with HCT-116 [1] and 22.7% in the data set on SW480 [4]. The result in the data set with MDA-MB-231 [5] and with MDA-MB-231 [6] was Active. For the same molecule, the results for the concentration for a half-maximal effect (EC50) in the data set on HCT-116 [2] and in the data set with SW480 [3] were 9 µM and 12 µM, respectively.
Turning to `O=S(=O)(Nc1cccc(-n2ccnc2)c1)c1ccc(Br)cc1`, the figures for the Activity with HCT-116 [1] and in the data set on SW480 [4] were 3.1% and 3.6%, respectively. Further, the EC50 with HCT-116 [2] and with SW480 [3] was over 50 µM each time.
As for `O=S(=O)(Nc1cccc(-c2ccsc2)c1)c1ccc(Br)cc1`, the results for the Activity with HCT-116 [1] and in the data set with SW480 [4] were 0.8% and 2.7%, respectively. For the same molecule, the EC50 is 19 µM in the data set with HCT-116 [2] and 25 µM in the data set with SW480 [3]. For the same molecule, the result in the data set with MDA-MB-231 [7] and with MDA-MB-231 [6] was Active.
On to `O=S(=O)(Nc1cccc(-c2ccccn2)c1)c1ccc(I)cc1`, for which the Activity in the data set on HCT-116 [1] came out at 8.5%; with SW480 [4], 2.6%. Moreover, the EC50 in the data set on HCT-116 [2] was 39 µM; in the data set on SW480 [3] it was 25 µM.
`O=C1[C@H](Cc2ccc(O)cc2)N2C(=O)CCN(C(=O)NCc3ccccc3)[C@H]2CN1Cc1cccc2ccccc12`: in the data set with MDA-MB-231 [7], the result was Active.
Take `O=S(=O)(Nc1ccc(-c2ccco2)cc1)c1ccc(C(F)(F)F)cc1`: the figures for the Activity with HCT-116 [1] and with SW480 [4] were 2.4% and 6.6%, respectively. For the same molecule, the EC50 in the data set on HCT-116 [2] and in the data set on SW480 [3] was over 50 µM each time.
Turning to `O=S(=O)(Nc1ccc(-c2ccccc2)cc1)c1ccc(Br)cc1`, the figures for the Activity in the data set on HCT-116 [1] and in the data set on SW480 [4] were 3.2% and 8.1%, respectively. Moreover, the EC50 in the data set with HCT-116 [2] turned out to be 27 µM; in the data set with SW480 [3] it was 31 µM.
On the same counts, the results for `O=S(=O)(Nc1cccc(-c2ccccc2)c1)c1ccc(C(F)(F)F)cc1` are 36.4%, 28.3%, 48 µM and 43 µM.
On the same counts, the results for `O=S(=O)(Nc1ccc(-c2ccsc2)cc1)c1ccc(Br)cc1` are 8.6%, 3.7%, 32 µM and 27 µM.
As to `O=S(=O)(Nc1ccc(-c2ccccc2)cc1)c1ccc(C(F)(F)F)cc1`, the Activity came to 22.4% in the data set with HCT-116 [1] and 37.3% in the data set on SW480 [4]. Moreover, the EC50 was determined as 12 µM in the data set with HCT-116 [2] and 8.7 µM in the data set with SW480 [3].
By half-life is commonly meant the time needed for the level to fall by half in the phase considered. Take `CC(C)NCC(O)COc1cccc2ccccc12` (stereo not given) [PROPRANOLOL]: the half-life in data set [8] came to 35.2 min.
With `O=S(=O)(Nc1ccc(-n2ccnc2)cc1)c1ccc(C(F)(F)F)cc1`, the results for the Activity in the data set on HCT-116 [1] and in the data set on SW480 [4] were 4.4% and 6%, respectively. Also, the EC50 with HCT-116 [2] was found to be 16 µM; with SW480 [3] it was 14 µM.
With `O=S(=O)(Nc1ccc(-c2ccoc2)cc1)c1ccc(C(F)(F)F)cc1`, the values for the Activity in the data set on HCT-116 [1] and in the data set with SW480 [4] were 9.7% and 4.4%, respectively. For the same molecule, the EC50 in the data set on HCT-116 [2] was over 55 µM; with SW480 [3], over 50 µM.
Take `O=S(=O)(Nc1cccc(-c2ccoc2)c1)c1ccc(C(F)(F)F)cc1`: the Activity in the data set on HCT-116 [1] is 6.7%; with SW480 [4], 7.4%. Further, the EC50 in the data set on HCT-116 [2] and with SW480 [3] was over 50 µM throughout.
`CCOc1ccc2ccc(=O)oc2c1`: the microsomal CLint in [9] was 712 µL/min/mg; in [11], 94 µL/min/mg. Moreover, the half-life in data set [10] came to 1.9 min; in [8] it was 14.8 min.
Regarding `O=S(=O)(Nc1cccc(-c2ccccn2)c1)c1ccc(C(F)(F)F)cc1`, the Activity with HCT-116 [1] is 6.6%; in the data set on SW480 [4], 3.4%. Besides, the EC50 with HCT-116 [2] and with SW480 [3] was over 50 µM each time.
In the case of `O=S(=O)(Nc1ccc(-c2ccsc2)cc1)c1ccc(C(F)(F)F)cc1`, the Activity was 2.4% in the data set on HCT-116 [1] and 5.6% in the data set with SW480 [4]. Besides, the EC50 in the data set on HCT-116 [2] was determined as 12 µM; with SW480 [3], 17 µM.
On the same counts, the results for `O=S(=O)(Nc1cccc(-c2ccoc2)c1)c1ccc(Br)cc1` are 5.7%, 1.6%, 35 µM and 38 µM.
In the same order, the values of `CCOC(=O)c1ccc(NS(=O)(=O)c2ccc(Br)cc2)cc1` are 18.8%, 21.6%, over 50 µM and over 50 µM.
As for `COC(=O)c1ccc(NS(=O)(=O)c2ccc(Br)cc2)cc1`, the Activity in the data set on HCT-116 [1] was determined as 2.5%; with SW480 [4], 19.4%.
Turning to `O=S(=O)(Nc1cccc(-c2ccco2)c1)c1ccc(C(F)(F)F)cc1`, the figures for the Activity with HCT-116 [1] and in the data set on SW480 [4] were 2.7% and 5.3%, respectively. Moreover, the EC50 in the data set with HCT-116 [2] and in the data set with SW480 [3] was over 50 µM throughout.
Consider `O=S(=O)(Nc1ccc(-c2ccccn2)cc1)c1ccc(Br)cc1`, for which the Activity in the data set on HCT-116 [1] was determined as 4.3%; with SW480 [4], 8.8%. The EC50 amounted to 24 µM in the data set with HCT-116 [2] and 34 µM in the data set on SW480 [3].

For the origin of these results see ChEMBL document CHEMBL6127121, “Development of N-(4-(1H-Imidazol-1-yl)phenyl)-4-chlorobenzenesulfonamide, a Novel Potent Inhibitor of β-Catenin with Enhanced Antitumor Activity and Metabolic Stability” (J Med Chem, 2024).
